Assay results from article PMC12242638, “Drug Repurposing by Virtual Screening: Identification of New Already Approved ROCK Inhibitors as Promising Drugs to Target Neurodegeneration” (ACS Omega, 2025).
Entries after “also recorded” stand apart in the source; their conditions may differ.

Key:
hROCK1 = hROCK1 (Homo sapiens, UniProt Q13464); test: HotSpot Kinase Assay, ROCK1 inhibition (Reaction Biology Corp.); type: biochemical
Experimental: (§1) The HotSpot Kinase Assay was used for compound screening on protein kinases, as already reported. The assay was performed in a base reaction buffer containing 20 mM Hepes (pH 7.5), 10 mM MgCl2, 1 mM EGTA, 0.01% Brij-35, 0.02 mg/mL BSA, 0.1 mM Na3VO4, 2 mM DTT, and 1% DMSO, with the required cofactors added individually to each kinase reaction. The substrate was prepared in freshly made base reaction buffer, and cofactors were added accordingly. The indicated kinase was then delivered into the substrate solution and gently mixed. Test compounds, dissolved in 100% DMSO, were added to the kinase reaction mixture using acoustic technology (Echo550; nanoliter range), followed by incubation for 20 min at room temperature. The reaction was initiated by adding ^33P-ATP (1 μM) and incubating for 2 h at room temperature. Kinase activity was detected using the P81 filter-binding method.

hROCK2 = hROCK2 (Homo sapiens, UniProt O75116); test: HotSpot Kinase Assay, ROCK2 inhibition (Reaction Biology Corp.); type: biochemical
hROCK2, sequence (O75116 whole entry): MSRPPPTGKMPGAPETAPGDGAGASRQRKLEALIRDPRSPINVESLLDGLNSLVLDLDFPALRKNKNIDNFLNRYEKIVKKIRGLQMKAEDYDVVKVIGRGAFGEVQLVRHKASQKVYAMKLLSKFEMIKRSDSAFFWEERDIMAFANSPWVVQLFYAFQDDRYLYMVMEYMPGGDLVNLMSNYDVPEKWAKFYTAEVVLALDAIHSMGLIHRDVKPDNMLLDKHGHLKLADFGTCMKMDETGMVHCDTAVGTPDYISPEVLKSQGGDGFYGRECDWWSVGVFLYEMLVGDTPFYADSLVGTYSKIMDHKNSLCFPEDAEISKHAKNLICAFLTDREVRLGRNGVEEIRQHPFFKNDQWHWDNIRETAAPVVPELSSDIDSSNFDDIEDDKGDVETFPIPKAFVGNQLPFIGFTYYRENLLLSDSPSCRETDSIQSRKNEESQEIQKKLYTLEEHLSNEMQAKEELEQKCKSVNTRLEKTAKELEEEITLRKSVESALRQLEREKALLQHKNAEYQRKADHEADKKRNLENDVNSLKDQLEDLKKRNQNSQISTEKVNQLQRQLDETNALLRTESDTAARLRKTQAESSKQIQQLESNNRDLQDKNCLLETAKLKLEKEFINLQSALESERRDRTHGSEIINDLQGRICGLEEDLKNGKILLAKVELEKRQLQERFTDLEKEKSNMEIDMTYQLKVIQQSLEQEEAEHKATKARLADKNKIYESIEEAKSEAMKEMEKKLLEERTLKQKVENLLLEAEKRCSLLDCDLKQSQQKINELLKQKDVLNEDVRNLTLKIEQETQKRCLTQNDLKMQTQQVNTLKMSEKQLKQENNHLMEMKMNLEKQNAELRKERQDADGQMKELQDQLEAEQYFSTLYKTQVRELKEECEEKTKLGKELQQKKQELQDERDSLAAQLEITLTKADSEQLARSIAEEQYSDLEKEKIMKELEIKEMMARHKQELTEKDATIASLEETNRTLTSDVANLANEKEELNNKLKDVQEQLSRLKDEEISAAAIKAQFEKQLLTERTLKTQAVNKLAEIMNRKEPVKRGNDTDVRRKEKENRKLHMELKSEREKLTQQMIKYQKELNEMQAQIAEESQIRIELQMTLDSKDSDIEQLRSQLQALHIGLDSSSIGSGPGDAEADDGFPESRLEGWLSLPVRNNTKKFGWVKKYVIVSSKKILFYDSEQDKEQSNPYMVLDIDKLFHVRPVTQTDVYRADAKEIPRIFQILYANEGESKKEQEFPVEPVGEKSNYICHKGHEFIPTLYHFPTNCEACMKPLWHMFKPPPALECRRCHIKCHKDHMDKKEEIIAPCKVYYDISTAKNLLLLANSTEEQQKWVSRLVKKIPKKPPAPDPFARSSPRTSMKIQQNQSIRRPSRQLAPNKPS
Experimental: as §1

[1] = previously reported; cited from earlier work
ROCK2 = details: introduction, literature values; read-out: ROCK2 IC50 of approved ROCK inhibitors; cited from earlier work
ROCK1 = details: introduction, literature values; read-out: ROCK1 IC50 of approved ROCK inhibitors; cited from earlier work
[2] = tested on: mouse hippocampal neurons; details: primary cultures of mouse hippocampal neurons; cited from earlier work
[3] = tested on: murine primary astrocytes; test: GFAP and C3 immunocytochemistry in LPS-treated primary cortical astrocytes; type: cell-based, C57BL/6 mice (Mus musculus); details: 24 h; for C3 immunostaining in LPS-treated astrocyte cultures: 1 μM ruxolitinib, LPS 10 μg/mL
Experimental: Primary cortical astrocyte cultures were prepared from brains of P0–3 C57BL/6 mice as described by Matias et al. The meninges of the brain were removed to cortex desiccation in Gey’s buffer, and the cerebral cortex was maintained in DMEM/F12, supplemented with 10% FBS. […] After 24 h, cultures were washed and fixed.
Astrocyte cultures were fixed with 4% PFA in phosphate-buffered saline (PBS, pH 7.4) for 15 min, and nonspecific sites were blocked with 3% BSA, 5% normal goat serum, and 0.2% Triton X-100 diluted in PBS for 1 h, before incubation with the rabbit anti-GFAP (1:1,000, DAKO Cytomation, Cat. Z0334) and the rat anti-C3 (1:100, Abcam, Cat. ab11862) at 4 °C overnight. Subsequently, the cells were thoroughly washed with PBS and incubated with secondary antibodies at room temperature for 2 h.

PKCα = PKCα (Homo sapiens, UniProt P17252); test: HotSpot Kinase Assay, AGC kinase selectivity, PKCα; type: biochemical
Experimental: as §1

C6 cells = test: MTT cell viability, C6 glioma cell line; type: cell-based; details: 0.1 to 5 μM, 24 h
Experimental: (§2) Prior to the experiments, SH-SY5Y cells were cultured in DMEM/F12 plus 10% FBS (Fetal bovine serum, Invitrogene). […] The cells were incubated for 24 h under these conditions.
(§3) C6 and SH-SY5Y cells were plated in a 96-well plate with 1 × 10^4 cells per well. Cell morphology was observed using an EVOS phase-contrast microscope (Invitrogen, ThermoFisher Scientific, USA), and viability was evaluated using a 3-[4,5-dimethylthiazol-2-yl]-2,5-diphenyltetrazolium bromide (MTT) reduction assay. After 24 h of treatment, cells were incubated with 0.5 mg/mL MTT dye for 3 h at 37 °C and 5% CO2. This assay evaluates the labeling activity of mitochondrial dehydrogenases such as succinate dehydrogenase by reducing MTT (yellow) to a purple formazan salt. The culture media were removed, and the crystals were dissolved in 150 μL DMSO. The intensity of formazan was measured using a GloMax spectrophotometer (Promega) at a wavelength of 560 nm.

SH-SY5Y cells = test: MTT cell viability, SH-SY5Y cell line; type: cell-based; details: 0.1 to 5 μM, 24 h
Experimental: as §2, §3

hROCK1, sequence (Q13464 whole entry): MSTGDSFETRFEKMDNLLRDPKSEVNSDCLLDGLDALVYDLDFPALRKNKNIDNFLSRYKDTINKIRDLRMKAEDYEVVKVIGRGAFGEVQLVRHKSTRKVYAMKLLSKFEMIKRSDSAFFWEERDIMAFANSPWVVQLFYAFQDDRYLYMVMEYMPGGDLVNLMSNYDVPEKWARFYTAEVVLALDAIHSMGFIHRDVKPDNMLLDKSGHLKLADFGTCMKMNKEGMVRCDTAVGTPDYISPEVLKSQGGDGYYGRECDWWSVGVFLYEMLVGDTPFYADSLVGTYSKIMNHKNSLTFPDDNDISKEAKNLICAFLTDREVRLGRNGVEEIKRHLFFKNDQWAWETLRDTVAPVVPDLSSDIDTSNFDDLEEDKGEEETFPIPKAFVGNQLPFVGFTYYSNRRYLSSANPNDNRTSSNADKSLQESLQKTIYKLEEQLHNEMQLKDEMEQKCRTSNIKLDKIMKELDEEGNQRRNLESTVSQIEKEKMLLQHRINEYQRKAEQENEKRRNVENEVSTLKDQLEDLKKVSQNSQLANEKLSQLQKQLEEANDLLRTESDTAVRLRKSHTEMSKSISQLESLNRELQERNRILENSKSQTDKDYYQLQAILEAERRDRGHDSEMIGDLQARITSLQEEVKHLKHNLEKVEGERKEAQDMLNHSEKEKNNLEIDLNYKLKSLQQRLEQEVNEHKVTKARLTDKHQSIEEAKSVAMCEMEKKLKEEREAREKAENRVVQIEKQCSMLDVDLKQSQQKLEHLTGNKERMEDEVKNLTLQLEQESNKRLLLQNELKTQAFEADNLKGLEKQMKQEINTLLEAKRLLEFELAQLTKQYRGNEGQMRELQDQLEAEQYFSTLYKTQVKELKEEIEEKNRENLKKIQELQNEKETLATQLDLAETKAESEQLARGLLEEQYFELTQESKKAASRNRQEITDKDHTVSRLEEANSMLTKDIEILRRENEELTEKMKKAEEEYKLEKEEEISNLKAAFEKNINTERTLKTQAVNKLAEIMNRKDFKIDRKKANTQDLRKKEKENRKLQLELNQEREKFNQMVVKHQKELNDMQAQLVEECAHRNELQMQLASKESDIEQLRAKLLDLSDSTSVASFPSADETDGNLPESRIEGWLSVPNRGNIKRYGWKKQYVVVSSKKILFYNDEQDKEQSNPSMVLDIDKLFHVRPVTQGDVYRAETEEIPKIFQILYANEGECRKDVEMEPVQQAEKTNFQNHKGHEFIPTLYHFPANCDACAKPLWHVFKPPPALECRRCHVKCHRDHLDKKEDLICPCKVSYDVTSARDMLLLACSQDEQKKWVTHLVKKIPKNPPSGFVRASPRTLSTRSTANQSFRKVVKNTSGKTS

| Structure (SMILES) | IC50 (hROCK1) [nM] | IC50 (hROCK2) [nM] | IC50 (ROCK2) [nM] | IC50 (ROCK1) [nM] | other results |
| --- | --- | --- | --- | --- | --- |
| CCS(=O)(=O)N1CC(CC#N)(n2cc(-c3ncnc4[nH]ccc34)cn2)C1 [Baricitinib (37), baricitinib] | 19 | 11 | – | – | crossing of the blood-brain barrier (BBB) [1]: cross the blood-brain barrier (BBB) |
| O=C1CCc2cc(OCCCCc3nnnn3C3CCCCC3)ccc2N1 [Cilostazole] | – | – | – | – | ROCK1 % (30 µM), printed under IC50 ROCK1 head (hROCK1; 30 µM): 3%; ROCK2 % (30 µM), printed under IC50 ROCK2 head (hROCK2; 30 µM): 8% |
| O=S(=O)(c1cccc2cnccc12)N1CCCNCC1 [Fasudil (2), Fasudil] | – | – | – | […] | levels of Tau phosphorylation [2]: decreased the levels of Tau phosphorylation |
| O=C(CCNNC(=O)c1ccncc1)NCc1ccccc1 [Nialamide (40), nialamide] | 18800 | 29200 | – | – | – |
| C[C@H]1CNCCCN1S(=O)(=O)c1cccc2cncc(F)c12 [Ripasudil (3), Ripasudil] | – | – | 19 | 51 | – |
| N#CC[C@H](C1CCCC1)n1cc(-c2ncnc3[nH]ccc23)cn1 [Ruxolitinib (36), ruxolitinib] | – | – | – | – | C3 immunostaining in LPS-treated astrocyte cultures ([3]; listed as ruxolitinib): decreased C3 immunostaining; also recorded: reversed this event; C3 immunostaining in LPS-treated astrocyte cultures ([3]; listed as ruxolitinib (36)): reduce C3 immunolabeling; GFAP intermediate filament organization and process extension of astrocytes ([3]; 1 μM): did not impact intermediate filament organization and process extension; IC50 (PKCα): 1250 nM; cell viability (MTT), C6 glioma (astrocytic cell line) (C6 cells; listed as ruxolitinib): No significant impact on the viability; cell viability (MTT), C6 glioma (astrocytic cell line) (C6 cells; listed as ruxolitinib (36)): did not adversely affect the viability; also recorded: does not affect the viability; crossing of the blood-brain barrier (BBB) [1]: cross the blood-brain barrier (BBB); cell viability (MTT), SH-SY5Y (neuronal cell line) (SH-SY5Y cells; listed as ruxolitinib): No significant impact on the viability; cell viability (MTT), SH-SY5Y (neuronal cell line) (SH-SY5Y cells; listed as ruxolitinib (36)): did not adversely affect the viability; also recorded: does not affect the viability |
| COc1cc2nccc(Oc3ccc(NC(=O)Nc4cc(C)on4)c(Cl)c3)c2cc1OC [Tivozanib (39), tivozanib] | 12900 | 856 | – | – | selectivity for ROCK2 over ROCK1 (hROCK2; from the IC50 values): 15 fold |
| Cc1cc(Nc2ncnc3ccc(NC4=NC(C)(C)CO4)cc23)ccc1Oc1ccn2ncnc2c1 [Tucatinib (41), tucatinib] | 51500 | 18600 | – | – | – |
